According to the supplement of paper PMC10307832:

Legend:
Assay in all cases: relative viability (nuclei count vs DMSO), 5 days (fraction); higher = more cells survive
[1] = compound: O=S(=O)(c1ccccc1)N(CC(F)(F)F)c1ccc(C(O)(C(F)(F)F)C(F)(F)F)cc1 + Cc1nc(NC(=O)N2CCC[C@H]2C(N)=O)sc1-c1ccnc(C(C)(C)C(F)(F)F)c1 [Alpelisib] (partner 2 µM)
Method in brief: (§1)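 Medians of duplicate plates are given as relative viability. That measure is the nuclei count in treated wells divided by the count in vehicle wells. Counts were taken on 4× images of lung cancer cell lines in 1536-well plates, 5 days after pin-tool dosing the day after seeding with one drug alone or a fixed anchor-drug dose plus five library-drug doses (not always all listed) in √10 steps.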

RO-3306 + Palbociclib = compound: C1=CC2=C(C=CC(=C2)C=C3C(=O)NC(=NCC4=CC=CS4)S3)N=C1 [RO-3306] + CC(=O)c1c(C)c2cnc(Nc3ccc(N4CCNCC4)cn3)nc2n(C2CCCC2)c1=O [Palbociclib] (partner 0.5 µM)
Method in brief: as §1

RO-3306 + Pictilisib = compound: C1=CC2=C(C=CC(=C2)C=C3C(=O)NC(=NCC4=CC=CS4)S3)N=C1 [RO-3306] + CS(=O)(=O)N1CCN(Cc2cc3nc(-c4cccc5[nH]ncc45)nc(N4CCOCC4)c3s2)CC1 [Pictilisib] (partner 1 µM)
Method in brief: as §1

[2] = compound: O=S(=O)(c1ccccc1)N(CC(F)(F)F)c1ccc(C(O)(C(F)(F)F)C(F)(F)F)cc1 + O=C(c1cc(Cc2n[nH]c(=O)c3ccccc23)ccc1F)N1CCN(C(=O)C2CC2)CC1 [Olaparib] (partner 8 µM)
Method in brief: as §1

Row | Cell Line | relative viability ([1]; first compound 0.8 µM) | relative viability ([1]; first compound 2.53 µM) | relative viability ([1]; first compound 8 µM) | relative viability (RO-3306 + Palbociclib; first compound 0.01 µM) | relative viability (RO-3306 + Palbociclib; first compound 0.03162 µM) | relative viability (RO-3306 + Palbociclib; first compound 0.1 µM) | relative viability (RO-3306 + Palbociclib; first compound 0.3162 µM) | relative viability (RO-3306 + Palbociclib; first compound 1 µM) | relative viability (RO-3306 + Pictilisib; first compound 0.01 µM) | relative viability (RO-3306 + Pictilisib; first compound 0.03162 µM) | relative viability (RO-3306 + Pictilisib; first compound 0.1 µM) | relative viability (RO-3306 + Pictilisib; first compound 0.3162 µM) | relative viability (RO-3306 + Pictilisib; first compound 1 µM) | relative viability ([2]; first compound 0.8 µM) | relative viability ([2]; first compound 2.53 µM) | relative viability ([2]; first compound 8 µM)
1 | HOP-62 | 0.551 | 0.954 | 0.706 | 0.519 | 0.481 | 0.416 | 0.43 | 0.446 | 0.898 | 0.564 | 0.759 | 0.686 | 0.471 | 0.226 | 0.49 | 0.392
2 | IA-LM | 0.715 | 0.5 | 0.655 | – | – | – | – | – | 0.339 | 0.242 | 0.311 | 0.278 | 0.36 | 0.94 | 0.651 | 0.681
3 | LC-2-ad | 0.576 | 0.843 | 0.841 | 0.504 | 0.399 | 0.512 | 0.515 | 0.483 | 0.43 | 0.275 | 0.377 | 0.488 | 0.428 | 0.689 | 0.675 | 0.674
4 | LCLC-97TM1 | 0.241 | 0.252 | 0.263 | 0.203 | 0.218 | 0.237 | 0.214 | 0.194 | – | 0.18 | 0.165 | 0.254 | 0.183 | – | 0.355 | 0.257
5 | LCLC-103H | 1.11 | 0.999 | 1.03 | 0.472 | 0.462 | 0.514 | 0.492 | 0.486 | 0.461 | 0.556 | 0.561 | 0.655 | 0.608 | 0.813 | 0.737 | 0.772
6 | LK-2 | 1.08 | 1.16 | 1.05 | 0.862 | 0.574 | 0.615 | 0.908 | 0.651 | 0.482 | 0.499 | 0.64 | 0.681 | 0.534 | 0.918 | 0.845 | 0.816
7 | LOU-NH91 | 0.654 | 0.721 | 0.74 | 0.538 | 0.547 | 0.542 | 0.526 | 0.53 | 0.512 | 0.528 | 0.522 | 0.533 | 0.406 | 0.966 | 0.935 | 0.913
8 | LU99A | 0.606 | 0.498 | 0.472 | 0.438 | 0.418 | 0.425 | 0.374 | 0.386 | 0.33 | 0.292 | 0.343 | 0.284 | 0.295 | 0.253 | 0.248 | 0.392
9 | LXF-289 | 1.03 | 0.912 | 0.789 | 0.62 | 0.631 | 0.627 | 0.577 | 0.616 | 0.781 | 0.677 | 0.806 | 0.805 | 0.774 | 1.03 | 0.91 | 1.04
10 | NCI-H23 | 0.905 | 0.818 | 0.618 | 0.513 | – | 0.46 | 0.472 | 0.454 | 0.507 | 0.468 | 0.433 | 0.451 | 0.433 | 0.31 | 0.23 | 0.302
11 | NCI-H322M | 0.794 | 0.792 | 0.73 | 0.472 | 0.469 | 0.502 | 0.433 | 0.478 | 0.493 | 0.486 | 0.485 | 0.556 | 0.585 | 0.81 | 0.734 | 0.857
12 | NCI-H358 | 0.647 | 0.729 | 0.695 | 0.163 | 0.106 | 0.126 | 0.116 | 0.112 | 0.308 | 0.387 | 0.319 | 0.321 | 0.31 | – | 0.563 | 0.517
13 | NCI-H441 | 0.815 | 0.481 | 0.64 | 0.197 | 0.179 | 0.182 | 0.204 | 0.157 | 0.491 | 0.332 | 0.387 | 0.607 | 0.451 | 0.657 | 0.469 | 0.654
14 | NCI-H460 | 0.544 | 0.512 | 0.512 | 0.191 | 0.12 | 0.142 | 0.26 | 0.136 | 0.388 | 0.374 | 0.371 | 0.329 | 0.32 | 0.452 | 0.432 | 0.407
15 | NCI-H520 | 1 | 0.915 | 1.28 | 0.254 | 0.224 | 0.235 | 0.261 | 0.267 | 0.307 | 0.266 | 0.283 | 0.312 | 0.314 | 0.333 | 0.346 | 0.32
16 | NCI-H522 | – | – | – | 1.2 | 0.965 | 1.01 | 1.02 | 1.04 | – | – | – | – | – | 0.597 | 0.614 | 0.714
17 | NCI-H596 | 0.423 | 0.419 | 0.421 | – | – | – | – | – | 0.345 | 0.394 | 0.375 | 0.372 | 0.287 | 0.634 | 0.681 | 0.651
18 | NCI-H1299 | 1.09 | 1.08 | 1.03 | – | – | – | – | – | 0.873 | 0.854 | 0.833 | 0.796 | 0.649 | 0.961 | 0.949 | 0.96
19 | NCI-H1563 | 0.923 | 0.833 | 0.788 | – | – | – | – | – | 0.641 | 0.597 | 0.69 | 0.62 | 0.59 | – | – | –
20 | NCI-H1648 | – | – | – | 0.277 | – | 0.284 | 0.246 | 0.224 | – | – | – | – | – | 0.835 | 0.542 | 0.602
21 | NCI-H1650 | – | – | – | 0.423 | 0.246 | 0.285 | 0.321 | 0.274 | 0.491 | 0.503 | 0.48 | 0.583 | 0.414 | 0.792 | 0.678 | 0.743
22 | NCI-H1703 | 0.343 | 0.316 | 0.382 | – | – | – | – | – | 0.241 | 0.221 | 0.237 | 0.241 | 0.254 | 0.53 | 0.387 | 0.446
23 | NCI-H2342 | – | – | – | 0.515 | 0.512 | 0.494 | 0.498 | 0.527 | – | – | – | – | – | 0.475 | 0.504 | 0.429
24 | SW 900 | – | – | – | 0.61 | 0.505 | 0.539 | 0.542 | 0.51 | – | – | – | – | – | 0.838 | 0.901 | 0.706
